Data on three compounds can be found in patent US20230355549A1, “METHOD OF PREVENTING KIDNEY INJURY DISRUPTION OF INTESTINAL LYMPHATICS” (Vanderbilt University, priority 2020, published 2023).

Counter-ions that a name gives are not always drawn.

In one data set the test system is Sprague Dawley rats. The conditions noted are these: rat, in vivo, ip, 125 mg/kg. On the procedure: Adult male Sprague Dawley rats (200-225 g, Charles River) were housed under a 12-h light/dark cycle with free access to normal rat chow and water. Kidney injury was induced by a single injection of puromycin […] (PAN) (125 mg/kg body weight, i.p.) while saline-injected rats served as controls (Cont). Eight days after injection, rats were sacrificed and blood, urine, and tissues were harvested. We also studied adult male (12 weeks old) Nphs1-hCD25 transgenic (NEP25, C57 bl/6 background) mice expressing human CD25 on podocytes can be selectively injured by injection of recombinant immunotoxin, anti-Tac (Fv)-PE38 (LMB2, 1 ng/g BW, i.v. generously provided by Dr. Ira Pastan) that results in proteinuria. These and wild type control mice were housed under normal conditions with free access to regular rodent chow and water. Two weeks after LMB2, mice were sacrificed and blood, urine and tissues harvested. All animal procedures were approved by the Institutional Animal Care and Use Committee at Vanderbilt University.
Mesenteric lymph was collected in a subset of conscious rats following cannulation of the mesenteric lymph duct. The rats were placed in Bollman cages in a temperature- and humidity-controlled incubator and lymph collected hourly for at least 3 h.
(§1) Albumin (Exocell), apoAI (Mybiosource), sphingosine-1 phosphate (S1P) (Mybiosource) and VEGF-C levels (Mybiosource) were measured by ELISA. Albuminuria was measured as urine albumin-to-creatinine ratio (ACR) (Nephrat II, Exocell) and QuantiChrom™ Creatinine Assay Kit (Bioassay Systems), respectively. Plasma and lymph total cholesterol and triglycerides were measured enzymatically (Cliniqa). HDL and LDL fractions were isolated from plasma and lymph by density-gradient ultracentrifugation after adjustment with potassium bromide. Lipoprotein particle size was evaluated by NMR methodology (Liposcience). Colorimetric assays were used to measure protein (BCA, ThermoFisher). Lipoproteins in plasma and lymph were separated by size-exclusion chromatography (SEC) using an Akta Pure fast-protein liquid chromatography (FPLC) system (GE Healthcare). Total IsoLG-protein adduct by LC/MS was measured as IsoLG-lysine after complete proteolytic digestion of lymph samples.

A further data set relates to ileal organoids. Nature of the data set: IsoLG adduct production in cultured ileal organoids (enteroids). The format is cell-based. The following applies: 1 mmol/L, 3 days, vs vehicle, FIG. 4C. How it is done: as §1
Intact perfused intestine was used to generate ileal organoids. Cultured ileal organoids were incubated in medium with or without indoxyl sulfate (1 mmol/L, Sigma) for 3 days. Total protein was extracted for quantitation of IsoLG.

Data set [1] concerns Primary adult dermal lymphatic endothelial cells (LECs). Put plainly: Cultured lymphatic endothelial cells (LECs) exposed to IsoLG-modified apoAI. Type of data set: cell-based. The conditions noted are these: apoAI 10 μg/ml, IsoLG 1 μM/L, 18 h, vs unmodified apoAI. On the procedure: Primary adult dermal lymphatic endothelial cells (LECs) (HMVEC-DLyAd, Lonza) were cultured with conditioned growth medium (Lonza). Cells at passage 5-6 with ˜70% confluence were starved in serum-free medium overnight, then incubated with unmodified or IsoLG-modified apoAI (apoAI: 10 μg/ml, IsoLG: 1 μM/L) for 18 h. […] Quantification of eNOS (Nos3) and β-actin (ACTB) mRNA was performed by RT-PCR and production of superoxide was assessed by high-performance liquid chromatography.

In data set [2] the test system is isolated mesenteric lymphatic vessels. Put plainly: Lymphatic dynamics ex vivo, isolated mesenteric lymphatic vessels. On the procedure:
Mesenteric lymphatic vessels were collected and mounted in a perfusion chamber. Chambers were placed on inverted microscopes equipped with a digital image capture system (IonOptix) to record pre-valve intraluminal diameters and frequency of contractions. Vessels were warmed to 37° C., pressurized to 0.5 mmHg using a column of Krebs buffer, and allowed to equilibrate (20-60 minutes). Viable vessels were then pressurized in a stepwise manner to a constant pressure of 3.5 mmHg, then exposed to purified apoAI or modified apoAI using 1 molar equivalent synthetic IsoLG or vehicle (DMSO). Fresh Krebs buffer was circulated to facilitate wash out. Next vessels were exposed to IsoLG-modified apoAI. After each challenge, lumen diameters were allowed to plateau (40-60 minutes).

A further data set deals with THP-1 cells. Nature of the data set: VEGFC mRNA in THP-1 derived macrophages. The following applies: apoAI 10 μg/ml, IsoLG 1 μM/L, 48 h, vs unmodified apoAI, FIG. 6D. The format is cell-based. On the procedure:
THP-1 cells were plated and differentiated into macrophages by […] containing 10% FBS and 50 ng/ml phorbol 12-myristate 13-acetate for 3 days. Cells were incubated with unmodified or IsoLG-modified apoAI (apoAI: 10 μg/ml, IsoLG: 1 μM/L) for 48 h. VEGFC mRNA was assessed by RT-PCR.

Turning to `CN(C)c1ncnc2c1ncn2[C@@H]1O[C@H](CO)[C@@H](N)[C@H]1O` [PAN, puromycin aminoglycoside], in the data set with Sprague Dawley rats, the “ACR (albumin/creatinine concentration ratio)” value amounted to 126.652 ± 13.283 mg/mg, the “Plasma Albumin” value was 350.7 ± 27.3 mg/dL, the “Plasma Cholesterol” value was 236.6 ± 36.8 mg/dL and the “Plasma Triglyceride” value is given as 132.1 ± 19.2 mg/dL.

Take `O=S(=O)(O)Oc1c[nH]c2ccccc12` [indoxyl sulfate]: the IsoLG adduct production entry in the data set on ileal organoids is “significantly increased”.

Turning to “IsoLG-apoAI: purified apoAI modified using 1 molar equivalent synthetic IsoLG”, the “production of ROS” value in data set [1] (FIG. 5A) is “significantly greater production of ROS”. For the same compound, the “eNOS (Nos3) gene expression” value in data set [1] (FIG. 5B) is given as “increased Nos3”. Further, the “end-systolic diameter (ESD)” value in data set [2] (FIG. 5D) is recorded as “failed to significantly alter”. Besides, the “end-diastolic diameter (EDD)” value in data set [2] (FIG. 5E) is “significantly decreased”. In data set [2] (FIG. 5F), the amplitude of contraction entry was “significantly reduced”. In addition, the frequency of contractions entry in data set [2] (vs unmodified apoAI, FIG. 5C) was “increased frequency of contractions”. The “VEGFC mRNA expression” value with THP-1 cells is listed as “significantly increased”.
